Data from patent publication US4061645A, “2-Trichloromethyl-5-methylsulfinyl-1,3,4-thiadiazole” (Schering Aktiengesellschaft, priority 1972, dated 1977).

Assays:
Pythium ultimum = Pythium ultimum infested compost soil, marrow peas (Example 2); format: in vivo; conditions: for Weight of fresh plant: 3 weeks; for Number of sound peas after 3 wks.: of 25 grains
Excerpt: Steamed compost soil was inoculated with mycelium of Pythium ultimum.

Stemphylium ilicis = assay: Agar test (Example 7), Stemphylium; format: cell-based; conditions: 10 ppm; 5 days at 22° C; control 100
Experimental: (§1) The fungicidal action of the agents according to the invention was tested in artificial nutrient media against plant-pathogenic fungi in Petri dishes (agar test). The procedure was to sterilize the medium consisting of 2% malt extract and 1.5% agar-agar powder. Before the solidification of the medium, the active substances were added to it, mixing thoroughly, so that the medium received 10 parts of active substance per million (ppm). After the solidification of the medium, the latter was inoculated with a platinum dropper which contained 100 spores each of the fungi to be tested, and after five days at 22° C, an evaluation was made by measuring the diameter of the colonies in mm.

Helminthosporium sativum = assay: Agar test (Example 7), Helminthosporium; format: cell-based; conditions: 10 ppm; 5 days at 22° C; control 100
Experimental: as §1

Asperqilus niger = assay: Agar test (Example 7), Aspergillus; format: cell-based; conditions: 10 ppm; 5 days at 22° C; control 100
Experimental: as §1

[1] = tested on: Colletotrichum gloeosporioides; assay: Agar test (Example 7), Colletotrichum; format: cell-based; conditions: 10 ppm; 5 days at 22° C; control 100
Experimental: as §1

Botrytis cinerea = assay: Agar test (Example 7), Botrytis; format: cell-based; conditions: 10 ppm; 5 days at 22° C; control 100
Experimental: as §1

[2] = tested on: Fusarium oxysporum f. callistephi; assay: Fusarium infested compost soil, Callistephus chinesis seedlings (Example 5); format: in vivo; conditions: of 4 seedlings
Excerpt: Steamed compost soil was inoculated with a spore suspension of Fusarium oxysporum f. callistephi. After homogeneous mixture of the products with the infested soil, the products were present as 20% powder preparations, and after a waiting period of 8 days, there were set out per concentration 4 seedlings of Callistephus chinesis, master aster "Sun Ray" as host plants.

Rhizoctonia solani [3] = assay: Limit concentration of soil-fungicidal effectiveness, Rhizoctonia solani, infested soil seeded with peas (Example 1); format: in vivo; conditions: soil, 480 h, 20 to 23 days, 22°-25° C, read-out: Limit concentration of the fungicidal effectiveness
Experimental: Limit concentrations of the soil-fungicidal effectiveness at homogeneous mixture of the products with the infested soil. Basic condition in the evaluation are a sound root formation without fungus necroses and germination of the seed of at least 90% compared with the result obtained in steamed soil. Per concentration there were seeded 25 grains of peas of the variety "Miracle of Kelvedon" (marrow pea) without a waiting period. The cultivation time in the tests was 20 to 23 days at a temperature of 22°-25° C. Four commercial products were included in the test series.
Rhizoctania solani: -- Steamed compost soil was inoculated with mycelium of Rhizoctonia solani.

Rhizoctonia solani [4] = assay: Rhizoctonia solani infested compost soil, marrow peas (Example 3); format: in vivo; conditions: for Weight of fresh plant: 3 weeks; for Number of sound peas after 3 wks.: of 25 grains
Excerpt: Steamed compost soil was inoculated with mycelium of Rhizoctonia solani. After homogeneous mixture of the products with the infested soil, the products were present in the form of 20% powder preparations, the seeding of 25 grains of marrow peas of the variety "Miracle of Kelvedon" per concentration was effected without waiting period in clay dishes holding 1 liter of soil. The table lists the number of germinated sound peas, the weight of the fresh plant, and a root evaluation after a cultivation period of three weeks at 22°-25° C.

Meloidogyne incognita = assay: Nematocidal action, infested compost soil, cucumber seeds (Example 8); format: in vivo; conditions: 30 days
Experimental: The products as 20% powder preparations were homogeneously admixed with a compost soil heavily infested by root gal nematodes. Without a waiting period, 20 cucumber seeds per concentration were seeded. After a cultivation time of 30 days at a temperature of 23°-25° C, the nematocidal action was evaluated by counting the root galls formed in the waterbath. The following table states the reduction of attack in percent. In the control, an average of 90 root galls per seedling had formed.

Thielaviopsis basicola = assay: Control of Thielaviopsis basicola on tobacco (Example 10); format: in vivo; parameters: key to Attack 0-5: 0: no attack; 1: very slight attack; 2: slight attack; 3: medium attack; 4: strong attack; 5: very strong attack; conditions: five weeks
Experimental: Control of Thielaviopsis basicola on tobacco.
A 10% powder preparation of 2-trifluoromethyl-5-methylsulfonyl-1,3,4-thiadiazole was homogeneously admixed to a soil heavily infested by Thielaviopsis basicola. After a reaction time of one week, tobacco seedlings of the variety Nicotiana tabacum var. "White Burley" were set out and cultivated for five weeks in the greenhouse at 22°-32° C. The attack and weight of the fresh plant are evident from the table.

[5] = 200 mg active ingr. per liter of soil
[6] = 50 mg active ingredient per liter of soil
[7] = 100 mg active ingredient per liter of soil
[8] = 10 mg active ingr. per liter of soil
[9] = 20 mg active ingr. per liter of soil
[10] = 30 mg active ingr. per liter of soil
[11] = 40 mg active ingr. per liter of soil

SMILES | diameter of the colonies (Stemphylium ilicis) [mm] | diameter of the colonies (Helminthosporium sativum) [mm] | diameter of the colonies (Asperqilus niger) [mm] | diameter of the colonies [1] [mm] | diameter of the colonies (Botrytis cinerea) [mm] | minimal effective concentration (Rhizoctonia solani [3]) [µg/mL] | other results
S=C([S-])NCCNC(=S)[S-].[Zn+2] [Zinc ethylene-bis-dithiocarbamate, zinc-ethylene-bis-dithiocarbamate, reference compound] | 55 | 50 | 78 | 81 | 36 |  | Weight of fresh plant (Pythium ultimum; [5]): 7 g; Number of sound peas after 3 wks. (Pythium ultimum; [5]): 14
CCCCS(=O)(=O)c1nnc(C(Cl)(Cl)Cl)s1 [Compound 25, 2-trichloromethyl-5-butylsulfonyl-1,3,4-thiadiazole] | 0 | 0 | 0 | 0 | 0 | 25 | Number of attacked plants after 3 weeks [2, 6]: 0; Number of attacked plants after 3 weeks [2, 7]: 0
CCS(=O)(=O)c1nnc(C(Cl)(Cl)Cl)s1 [Compound 22, 2-trichloromethyl-5-ethylsulfonyl-1,3,4-thiadiazole] | 0 | 0 | 0 | 0 | 0 | 50 | Number of attacked plants after 3 weeks [2, 6]: 0; Number of attacked plants after 3 weeks [2, 7]: 0
CC(C)S(=O)(=O)c1nnc(C(Cl)(Cl)Cl)s1 [Compound 24, 2-trichloromethyl-5-isopropylsulfonyl-1,3,4-thiadiazole] | 0 | 0 | 0 | 0 | 0 | 30 | 
CC[S+]([O-])c1nnc(C(Cl)(Cl)Cl)s1 (stereo not shown) [Compound 9, 2-trichloromethyl-5-ethylsulfinyl-1,3,4-thiadiazole] | 0 | 0 | 0 | 0 | 0 | 10 | Number of attacked plants after 3 weeks [2, 6]: 0; Number of attacked plants after 3 weeks [2, 7]: 0; Weight of fresh plant (Rhizoctonia solani [4]; [8]): 18 g; Number of sound peas after 3 wks. (Rhizoctonia solani [4]; [8]): 22; Weight of fresh plant (Rhizoctonia solani [4]; [9]): 16 g; Number of sound peas after 3 wks. (Rhizoctonia solani [4]; [9]): 22; Weight of fresh plant (Rhizoctonia solani [4]; [10]): 17 g; Number of sound peas after 3 wks. (Rhizoctonia solani [4]; [10]): 23
CC[S+]([O-])c1nnc(C(Cl)Cl)s1 (stereo not shown) [Compound 4, 2-dichloromethyl-5-ethylsulfinyl-1,3,4-thiadiazole] |  |  |  |  |  | 20 | Nematocidal action in % (reduction of attack) (Meloidogyne incognita; 40 mg per liter of soil): 96%; Nematocidal action in % (reduction of attack) (Meloidogyne incognita; 60 mg per liter of soil): 99%
CCCS(=O)(=O)c1nnc(C(Cl)(Cl)Cl)s1 [Compound 23, 2-trichloromethyl-5-propylsulfonyl-1,3,4-thiadiazole] | 0 | 0 | 0 | 0 | 0 | 30 | Weight of fresh plant (Rhizoctonia solani [4]; [8]): 9 g; Number of sound peas after 3 wks. (Rhizoctonia solani [4]; [8]): 13; Weight of fresh plant (Rhizoctonia solani [4]; [9]): 17 g; Number of sound peas after 3 wks. (Rhizoctonia solani [4]; [9]): 21; Weight of fresh plant (Rhizoctonia solani [4]; [10]): 20 g; Number of sound peas after 3 wks. (Rhizoctonia solani [4]; [10]): 24
CCS(=O)(=O)c1nnc(C(Cl)Cl)s1 [Compound 18, 2-dichloromethyl-5-ethylsulfonyl-1,3,4-thiadiazole] | 0 | 0 | 0 | 41 | 13 | 100 | Nematocidal action in % (reduction of attack) (Meloidogyne incognita; 40 mg per liter of soil): 61%; Nematocidal action in % (reduction of attack) (Meloidogyne incognita; 60 mg per liter of soil): 90%
CCC[S+]([O-])c1nnc(C(Cl)Cl)s1 (stereo not shown) [Compound 5, 2-dichloromethyl-5-propylsulfinyl-1,3,4-thiadiazole] |  |  |  |  |  | 20 | Nematocidal action in % (reduction of attack) (Meloidogyne incognita; 40 mg per liter of soil): 90%; Nematocidal action in % (reduction of attack) (Meloidogyne incognita; 60 mg per liter of soil): 98%
CCCCCCCS(=O)(=O)c1nnc(C(Cl)(Cl)Cl)s1 [Compound 28, 2-trichloromethyl-5-heptylsulfonyl-1,3,4-thiadiazole] | 0 | 0 | 0 | 0 | 0 | 200 | 
CCC[S+]([O-])c1nnc(C(Cl)(Cl)Cl)s1 (stereo not shown) [Compound 10, 2-trichloromethyl-5-propylsulfinyl-1,3,4-thiadiazole] | 0 | 0 | 0 | 0 | 0 | 20 | 
CS(=O)(=O)c1nnc(C(F)(F)F)s1 [Compound 1, 2-trifluoromethyl-5-methylsulfonyl-1,3,4-thiadiazole] | 0 | 0 | 0 | 0 | 0 | 25 | Weight of fresh plant (Pythium ultimum; [8]): 20 g; Number of sound peas after 3 wks. (Pythium ultimum; [8]): 25; Weight of fresh plant (Pythium ultimum; [9]): 19 g; Number of sound peas after 3 wks. (Pythium ultimum; [9]): 22; Weight of fresh plant (Pythium ultimum; [10]): 19 g; Number of sound peas after 3 wks. (Pythium ultimum; [10]): 23; Attack 0-5 (Thielaviopsis basicola; [9]): 0.5; Weight of fresh plant (leaves and stems) (Thielaviopsis basicola; [9]): 115 g; Weight of roots (air-dry) (Thielaviopsis basicola; [9]): 11 g; Attack 0-5 (Thielaviopsis basicola; [10]): 0; Weight of fresh plant (leaves and stems) (Thielaviopsis basicola; [10]): 118 g; Weight of roots (air-dry) (Thielaviopsis basicola; [10]): 11 g; Attack 0-5 (Thielaviopsis basicola; [11]): 0; Weight of fresh plant (leaves and stems) (Thielaviopsis basicola; [11]): 104 g; Weight of roots (air-dry) (Thielaviopsis basicola; [11]): 9 g
CCCS(=O)(=O)c1nnc(C(Cl)Cl)s1 [Compound 19, 2-dichloromethyl-5-propylsulfonyl-1,3,4-thiadiazole] | 0 | 0 | 0 | 0 | 0 | 50 | Number of attacked plants after 3 weeks [2, 6]: 0; Number of attacked plants after 3 weeks [2, 7]: 0; Nematocidal action in % (reduction of attack) (Meloidogyne incognita; 40 mg per liter of soil): 72%; Nematocidal action in % (reduction of attack) (Meloidogyne incognita; 60 mg per liter of soil): 82%
CCCCC[S+]([O-])c1nnc(C(Cl)Cl)s1 (stereo not shown) [Compound 7, 2-dichloromethyl-5-amylsulfinyl-1,3,4-thiadiazole] | 0 | 0 | 0 | 0 | 22 | 50 | 
